Biological target: cholera toxin (Vibrio cholerae serotype O1, UniProt P01556)
Experiment: biochemical
Type: binding, V. cholerae

Chain of cholera toxin (P01556 22-124 limits assumed): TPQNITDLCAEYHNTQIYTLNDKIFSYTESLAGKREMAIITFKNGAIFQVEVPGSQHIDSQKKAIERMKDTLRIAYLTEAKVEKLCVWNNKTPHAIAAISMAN

OC[C@H]1OC(O)[C@H](O)[C@@H](O)[C@H]1O (stereo partly drawn) [D-galactose]
IC50: 30 mM
